Experimental data reported in US9084828B2, “Oligomer-protein tyrosine kinase inhibitor conjugates” (Nektar Therapeutics, priority 2009, dated 2015).

Key:
ABL(Q252H) = ABL(Q252H) (Homo sapiens, UniProt P00519, Q252H); assay: Activity against various protein tyrosine kinases: ABL(Q252H); type: biochemical
Method: Using techniques know those of ordinary skill in the art, compounds were tested for activity against various protein tyrosine kinases.

AKT2 = AKT2 (Homo sapiens, UniProt P31751); assay: Activity against various protein tyrosine kinases: AKT2; type: biochemical
AKT2, sequence (P31751 whole entry, species assumed): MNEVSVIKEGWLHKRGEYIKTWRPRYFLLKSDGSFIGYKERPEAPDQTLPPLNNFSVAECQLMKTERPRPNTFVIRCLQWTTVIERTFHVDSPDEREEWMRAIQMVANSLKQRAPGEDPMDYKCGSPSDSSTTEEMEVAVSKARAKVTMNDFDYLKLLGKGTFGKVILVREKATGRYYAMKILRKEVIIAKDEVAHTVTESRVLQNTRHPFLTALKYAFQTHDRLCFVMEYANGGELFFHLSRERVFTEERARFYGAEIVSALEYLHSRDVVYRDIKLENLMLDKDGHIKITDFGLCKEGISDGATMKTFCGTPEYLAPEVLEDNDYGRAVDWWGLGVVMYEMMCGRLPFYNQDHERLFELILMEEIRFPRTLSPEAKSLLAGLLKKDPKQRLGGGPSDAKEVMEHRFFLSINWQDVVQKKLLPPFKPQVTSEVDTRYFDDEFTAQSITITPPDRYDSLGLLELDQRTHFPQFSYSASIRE

CaMKII (beta) = CaMKII (beta) (Homo sapiens, UniProt Q13554); assay: Activity against various protein tyrosine kinases: CaMKII (beta); type: biochemical
CKIT = CKIT (Homo sapiens, UniProt P10721); assay: Activity against various protein tyrosine kinases: CKIT; type: biochemical
CKIT, sequence (P10721 26-976): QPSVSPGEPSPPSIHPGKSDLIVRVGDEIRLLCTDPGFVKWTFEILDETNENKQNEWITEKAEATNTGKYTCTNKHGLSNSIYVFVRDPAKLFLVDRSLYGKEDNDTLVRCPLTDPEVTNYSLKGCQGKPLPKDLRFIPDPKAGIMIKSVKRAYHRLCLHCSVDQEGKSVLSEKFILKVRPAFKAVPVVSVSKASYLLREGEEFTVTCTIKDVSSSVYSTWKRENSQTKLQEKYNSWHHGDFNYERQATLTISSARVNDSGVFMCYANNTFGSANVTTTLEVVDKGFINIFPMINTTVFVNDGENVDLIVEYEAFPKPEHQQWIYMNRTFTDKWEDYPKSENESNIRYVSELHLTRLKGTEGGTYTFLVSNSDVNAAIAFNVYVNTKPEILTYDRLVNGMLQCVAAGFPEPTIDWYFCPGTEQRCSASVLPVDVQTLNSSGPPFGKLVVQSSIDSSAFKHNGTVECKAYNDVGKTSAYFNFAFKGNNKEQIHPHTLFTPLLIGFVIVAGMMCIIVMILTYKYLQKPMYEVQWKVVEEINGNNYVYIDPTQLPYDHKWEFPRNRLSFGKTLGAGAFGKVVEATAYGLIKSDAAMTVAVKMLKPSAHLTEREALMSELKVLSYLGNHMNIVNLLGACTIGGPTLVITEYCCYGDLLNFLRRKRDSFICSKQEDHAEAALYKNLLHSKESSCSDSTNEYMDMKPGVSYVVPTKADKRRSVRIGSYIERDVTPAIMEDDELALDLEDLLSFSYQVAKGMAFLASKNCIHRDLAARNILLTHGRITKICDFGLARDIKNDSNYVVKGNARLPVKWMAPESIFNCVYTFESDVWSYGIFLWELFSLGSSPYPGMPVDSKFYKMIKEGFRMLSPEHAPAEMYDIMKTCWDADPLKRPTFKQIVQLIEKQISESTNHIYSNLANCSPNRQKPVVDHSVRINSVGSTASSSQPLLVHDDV

Erk2 = Erk2 (Homo sapiens, UniProt P28482); assay: Activity against various protein tyrosine kinases: Erk2; type: biochemical
Erk2, sequence (P28482 whole entry, species assumed): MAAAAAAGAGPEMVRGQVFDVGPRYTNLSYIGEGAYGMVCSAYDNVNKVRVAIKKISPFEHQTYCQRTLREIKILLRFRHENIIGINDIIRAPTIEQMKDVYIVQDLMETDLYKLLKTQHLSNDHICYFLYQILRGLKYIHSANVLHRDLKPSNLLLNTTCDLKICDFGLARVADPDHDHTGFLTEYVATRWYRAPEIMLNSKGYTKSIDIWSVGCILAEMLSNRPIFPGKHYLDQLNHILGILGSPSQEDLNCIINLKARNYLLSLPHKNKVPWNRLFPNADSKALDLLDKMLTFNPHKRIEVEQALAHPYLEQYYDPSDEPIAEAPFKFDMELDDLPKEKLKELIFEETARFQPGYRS

FGFR3 = FGFR3 (Homo sapiens, UniProt P22607); assay: Activity against various protein tyrosine kinases: FGFR3; type: biochemical
FGFR3, sequence (P22607 23-806, species assumed): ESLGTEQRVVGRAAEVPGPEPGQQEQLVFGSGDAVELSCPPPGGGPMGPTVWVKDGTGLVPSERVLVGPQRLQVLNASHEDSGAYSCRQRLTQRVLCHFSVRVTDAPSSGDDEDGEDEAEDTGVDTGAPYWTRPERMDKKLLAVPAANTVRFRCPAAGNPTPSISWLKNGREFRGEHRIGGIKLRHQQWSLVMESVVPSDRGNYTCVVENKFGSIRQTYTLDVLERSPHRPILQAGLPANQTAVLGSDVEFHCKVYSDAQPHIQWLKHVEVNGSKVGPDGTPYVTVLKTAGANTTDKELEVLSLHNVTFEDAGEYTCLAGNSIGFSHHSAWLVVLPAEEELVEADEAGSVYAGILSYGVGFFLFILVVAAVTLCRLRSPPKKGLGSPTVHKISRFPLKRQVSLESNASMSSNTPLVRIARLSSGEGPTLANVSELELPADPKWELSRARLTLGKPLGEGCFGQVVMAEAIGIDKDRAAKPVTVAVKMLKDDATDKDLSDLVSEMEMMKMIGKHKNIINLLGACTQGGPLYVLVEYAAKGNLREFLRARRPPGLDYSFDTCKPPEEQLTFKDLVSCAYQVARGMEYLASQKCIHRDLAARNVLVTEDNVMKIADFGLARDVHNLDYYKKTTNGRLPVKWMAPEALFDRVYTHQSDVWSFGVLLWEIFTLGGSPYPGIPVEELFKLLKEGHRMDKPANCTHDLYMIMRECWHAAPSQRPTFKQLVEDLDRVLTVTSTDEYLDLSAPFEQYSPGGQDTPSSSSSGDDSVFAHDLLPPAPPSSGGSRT

HCK = HCK (Homo sapiens, UniProt P08631); assay: Activity against various protein tyrosine kinases: HCK; type: biochemical
HCK, sequence (P08631 whole entry, species assumed): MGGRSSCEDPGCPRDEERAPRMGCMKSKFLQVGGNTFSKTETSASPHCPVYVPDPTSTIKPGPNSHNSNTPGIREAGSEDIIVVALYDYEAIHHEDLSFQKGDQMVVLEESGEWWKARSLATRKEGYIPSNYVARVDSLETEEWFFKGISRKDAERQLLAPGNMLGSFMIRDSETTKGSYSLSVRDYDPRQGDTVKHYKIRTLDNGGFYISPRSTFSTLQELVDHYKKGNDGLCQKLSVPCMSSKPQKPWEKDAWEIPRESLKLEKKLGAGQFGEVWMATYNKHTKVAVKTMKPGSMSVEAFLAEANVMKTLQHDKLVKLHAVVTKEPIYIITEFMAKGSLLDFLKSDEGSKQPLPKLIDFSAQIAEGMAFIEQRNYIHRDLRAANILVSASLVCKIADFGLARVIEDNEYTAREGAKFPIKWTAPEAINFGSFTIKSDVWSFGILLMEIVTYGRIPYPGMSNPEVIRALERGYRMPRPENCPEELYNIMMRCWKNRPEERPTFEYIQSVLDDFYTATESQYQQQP

MAPKAPK2 = MAPKAPK2 (Homo sapiens, UniProt P49137); assay: Activity against various protein tyrosine kinases: MAPKAPK2; type: biochemical
MAPKAPK2, sequence (P49137 whole entry, species assumed): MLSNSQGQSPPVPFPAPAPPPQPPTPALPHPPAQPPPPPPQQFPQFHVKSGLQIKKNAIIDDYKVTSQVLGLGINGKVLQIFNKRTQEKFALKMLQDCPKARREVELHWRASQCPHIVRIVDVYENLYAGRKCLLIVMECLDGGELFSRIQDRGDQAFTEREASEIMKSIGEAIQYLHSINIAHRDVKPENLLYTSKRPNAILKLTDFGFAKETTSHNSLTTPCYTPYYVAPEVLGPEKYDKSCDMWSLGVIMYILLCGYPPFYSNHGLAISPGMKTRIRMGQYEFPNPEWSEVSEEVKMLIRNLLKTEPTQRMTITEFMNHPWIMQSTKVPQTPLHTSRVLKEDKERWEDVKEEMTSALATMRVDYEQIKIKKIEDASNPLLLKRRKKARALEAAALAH

MET = MET (Homo sapiens, UniProt P08581); assay: Activity against various protein tyrosine kinases: MET; type: biochemical
MET, sequence (P08581 25-1390): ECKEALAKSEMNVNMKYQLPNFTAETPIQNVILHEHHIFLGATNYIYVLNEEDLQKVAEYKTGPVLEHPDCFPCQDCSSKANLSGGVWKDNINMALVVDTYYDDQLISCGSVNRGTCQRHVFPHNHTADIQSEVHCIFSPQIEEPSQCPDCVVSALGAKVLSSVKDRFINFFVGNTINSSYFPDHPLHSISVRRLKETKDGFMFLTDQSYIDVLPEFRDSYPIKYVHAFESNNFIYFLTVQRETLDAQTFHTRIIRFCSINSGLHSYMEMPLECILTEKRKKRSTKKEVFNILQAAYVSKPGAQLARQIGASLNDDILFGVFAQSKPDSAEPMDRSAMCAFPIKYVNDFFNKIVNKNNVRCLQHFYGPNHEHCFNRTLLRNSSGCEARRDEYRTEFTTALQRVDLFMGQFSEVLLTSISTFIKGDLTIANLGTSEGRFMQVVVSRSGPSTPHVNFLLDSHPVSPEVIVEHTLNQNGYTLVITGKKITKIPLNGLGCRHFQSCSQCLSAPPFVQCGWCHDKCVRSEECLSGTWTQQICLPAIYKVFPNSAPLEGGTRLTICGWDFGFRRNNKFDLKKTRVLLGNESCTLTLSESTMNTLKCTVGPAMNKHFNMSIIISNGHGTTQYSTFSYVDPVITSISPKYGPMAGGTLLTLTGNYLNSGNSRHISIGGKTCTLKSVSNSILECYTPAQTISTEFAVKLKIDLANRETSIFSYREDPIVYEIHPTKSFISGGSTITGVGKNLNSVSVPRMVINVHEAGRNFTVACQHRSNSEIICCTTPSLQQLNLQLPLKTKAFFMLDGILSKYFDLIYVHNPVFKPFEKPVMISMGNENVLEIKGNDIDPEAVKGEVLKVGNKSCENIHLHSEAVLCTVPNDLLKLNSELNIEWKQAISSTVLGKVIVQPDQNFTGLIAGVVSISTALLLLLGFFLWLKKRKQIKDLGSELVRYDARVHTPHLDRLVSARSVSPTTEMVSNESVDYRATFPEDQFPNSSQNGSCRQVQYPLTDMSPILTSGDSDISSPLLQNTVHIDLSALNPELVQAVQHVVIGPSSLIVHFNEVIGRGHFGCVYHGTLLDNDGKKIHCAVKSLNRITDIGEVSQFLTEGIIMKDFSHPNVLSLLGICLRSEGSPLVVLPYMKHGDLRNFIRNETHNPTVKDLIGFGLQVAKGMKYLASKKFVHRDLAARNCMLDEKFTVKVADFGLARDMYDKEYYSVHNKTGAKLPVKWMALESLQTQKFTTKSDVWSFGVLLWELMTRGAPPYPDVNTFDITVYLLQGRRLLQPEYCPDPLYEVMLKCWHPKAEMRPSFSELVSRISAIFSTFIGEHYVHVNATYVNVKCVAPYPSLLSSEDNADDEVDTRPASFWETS

PKCz = molecular target: T1, PKCz (Homo sapiens, UniProt Q05513); assay: Activity against various protein tyrosine kinases: PKCz; type: biochemical
T1 sequence (Q05513 1-592): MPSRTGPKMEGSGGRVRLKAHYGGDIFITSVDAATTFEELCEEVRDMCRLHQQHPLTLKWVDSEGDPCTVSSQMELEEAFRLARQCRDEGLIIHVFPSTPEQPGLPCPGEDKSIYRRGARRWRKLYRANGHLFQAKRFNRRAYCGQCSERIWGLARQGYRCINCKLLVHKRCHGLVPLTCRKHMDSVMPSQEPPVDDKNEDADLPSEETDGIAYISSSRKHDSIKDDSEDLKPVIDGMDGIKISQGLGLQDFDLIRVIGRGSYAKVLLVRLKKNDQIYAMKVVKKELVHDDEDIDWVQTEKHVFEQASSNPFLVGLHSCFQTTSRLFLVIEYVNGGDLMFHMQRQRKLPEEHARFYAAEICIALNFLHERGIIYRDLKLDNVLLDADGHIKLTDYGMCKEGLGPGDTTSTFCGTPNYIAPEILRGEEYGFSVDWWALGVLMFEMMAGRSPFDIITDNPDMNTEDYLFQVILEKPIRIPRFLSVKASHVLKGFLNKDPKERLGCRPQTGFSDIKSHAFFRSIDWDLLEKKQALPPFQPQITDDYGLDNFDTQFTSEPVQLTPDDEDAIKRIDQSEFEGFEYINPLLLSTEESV

PKD2 = molecular target: T2, PKD2 (Homo sapiens, UniProt Q9BZL6); assay: Activity against various protein tyrosine kinases: PKD2; type: biochemical
T2 sequence (Q9BZL6 1-878): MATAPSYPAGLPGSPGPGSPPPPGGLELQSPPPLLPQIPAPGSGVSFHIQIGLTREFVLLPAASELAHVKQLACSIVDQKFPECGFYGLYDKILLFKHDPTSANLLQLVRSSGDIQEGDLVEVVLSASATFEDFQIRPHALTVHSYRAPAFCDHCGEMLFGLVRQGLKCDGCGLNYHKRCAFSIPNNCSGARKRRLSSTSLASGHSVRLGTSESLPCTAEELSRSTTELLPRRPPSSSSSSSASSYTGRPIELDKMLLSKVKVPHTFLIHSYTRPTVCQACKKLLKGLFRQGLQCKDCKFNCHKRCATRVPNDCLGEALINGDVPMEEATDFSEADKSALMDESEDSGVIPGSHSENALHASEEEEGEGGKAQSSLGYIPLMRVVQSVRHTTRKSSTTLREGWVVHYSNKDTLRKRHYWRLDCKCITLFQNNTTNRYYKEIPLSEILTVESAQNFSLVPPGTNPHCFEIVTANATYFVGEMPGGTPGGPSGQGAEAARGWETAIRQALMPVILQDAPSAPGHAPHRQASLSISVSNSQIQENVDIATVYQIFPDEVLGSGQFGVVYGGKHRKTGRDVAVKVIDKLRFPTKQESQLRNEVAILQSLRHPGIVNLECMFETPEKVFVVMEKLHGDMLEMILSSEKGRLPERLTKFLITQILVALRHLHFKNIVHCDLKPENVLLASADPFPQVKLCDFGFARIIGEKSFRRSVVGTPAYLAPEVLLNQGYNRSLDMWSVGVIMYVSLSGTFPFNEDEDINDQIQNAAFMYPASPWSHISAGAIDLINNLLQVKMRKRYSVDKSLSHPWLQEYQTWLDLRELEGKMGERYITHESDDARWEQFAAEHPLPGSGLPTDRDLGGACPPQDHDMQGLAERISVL

ABL = ABL (Homo sapiens, UniProt P00519); assay: ABL tyrosine kinase inhibition, off-chip incubation mobility-shift kinase assay (Caliper LABCHIP 3000); details: for IC50: ABL, ATP at Km 14 μM, unit inferred; for ABL AVG % Activity at Specific Concentration: average of replicate wells
[1] = at 1.0E−09 (concentration unit not given)
[2] = at 1.0E−10 (concentration unit not given)
[3] = at 1.0E−11 (concentration unit not given)
[4] = at 3.0E−09 (concentration unit not given)
[5] = at 3.0E−10 (concentration unit not given)
[6] = at 3.0E−11 (concentration unit not given)

| Compound | % Inhibition at 10 nM (ABL(Q252H)) [%] | % Inhibition at 1 μM (ABL(Q252H)) [%] | % Inhibition at 10 nM (AKT2) [%] | % Inhibition at 1 μM (AKT2) [%] | % Inhibition at 10 nM (CaMKII (beta)) [%] | % Inhibition at 1 μM (CaMKII (beta)) [%] | % Inhibition at 10 nM (CKIT) [%] | % Inhibition at 1 μM (CKIT) [%] | % Inhibition at 10 nM (Erk2) [%] | % Inhibition at 1 μM (Erk2) [%] | % Inhibition at 10 nM (FGFR3) [%] | % Inhibition at 1 μM (FGFR3) [%] | % Inhibition at 10 nM (HCK) [%] | % Inhibition at 1 μM (HCK) [%] | % Inhibition at 10 nM (MAPKAPK2) [%] | % Inhibition at 1 μM (MAPKAPK2) [%] | % Inhibition at 10 nM (MET) [%] | % Inhibition at 1 μM (MET) [%] | % Inhibition at 10 nM (PKCz) [%] | % Inhibition at 1 μM (PKCz) [%] | other results |
| --- | --- | --- | --- | --- | --- | --- | --- | --- | --- | --- | --- | --- | --- | --- | --- | --- | --- | --- | --- | --- | --- |
| COCCOCCOCCNC(=O)OCCN1CCN(c2cc(Nc3ncc(C(=O)Nc4c(C)cccc4Cl)s3)nc(C)n2)CC1 [mPEG3-NHCOO-Dasatinib] | 98 | 99 | 9 | 7 | 1 | 2 | 34 | 100 | 6 | 11 | 3 | 11 | 98 | 98 | 1 | −1 | 3 | 0 | −12 | −13 | % Inhibition at 10 nM (PKD2): 12%; % Inhibition at 1 μM (PKD2): −5%; IC50 (ABL): 0.3 nM; ABL AVG % Activity at Specific Concentration (ABL; [1]): 4%; ABL AVG % Activity at Specific Concentration (ABL; [2]): 81%; ABL AVG % Activity at Specific Concentration (ABL; [3]): 99%; ABL AVG % Activity at Specific Concentration (ABL; [4]): 0%; ABL AVG % Activity at Specific Concentration (ABL; [5]): 47%; ABL AVG % Activity at Specific Concentration (ABL; [6]): 95% |
| COCCOCCOCCOCCOCCOCCOCCNC(=O)OCCN1CCN(c2cc(Nc3ncc(C(=O)Nc4c(C)cccc4Cl)s3)nc(C)n2)CC1 [mPEG7-NHCOO-Dasatinib] | 99 | 99 | 3 | 3 | 1 | 2 | 34 | 100 | 3 | 2 | 2 | 10 | 98 | 99 | 3 | 7 | 1 | 1 | 5 | −9 | % Inhibition at 10 nM (PKD2): 3%; % Inhibition at 1 μM (PKD2): 4%; IC50 (ABL): 0.32 nM; ABL AVG % Activity at Specific Concentration (ABL; [1]): 4%; ABL AVG % Activity at Specific Concentration (ABL; [2]): 80%; ABL AVG % Activity at Specific Concentration (ABL; [3]): 98%; ABL AVG % Activity at Specific Concentration (ABL; [4]): −1%; ABL AVG % Activity at Specific Concentration (ABL; [5]): 48%; ABL AVG % Activity at Specific Concentration (ABL; [6]): 91% |
